Results published in ChEMBL document CHEMBL4130615, “Evaluation of Diarylheptanoid-Terpene Adduct Enantiomers from Alpinia officinarum for Neuroprotective Activities” (J Nat Prod, 2018).
Activity calls are given as the source filed them. The rule behind the calls is not given here.

Experiments:
Cortical neurone [1] = test: Neuroprotective activity against MPP+-induced cell death in Sprague-Dawley rat cortical neurons assessed as increase in cell viability at 4 to 32 uM pretreated for 12 hrs followed by MPP+ challenge measured after 20 hrs by MTT assay; assay type: functional, cell-based
Cortical neurone [2] = test: Neuroprotective activity against MPP+-induced cell death in Sprague-Dawley rat cortical neurons assessed as increase in cell viability at 16 uM pretreated for 12 hrs followed by MPP+ challenge measured after 20 hrs by MTT assay; assay type: functional, cell-based

SMILES | Activity (Cortical neurone [1]) | Activity (Cortical neurone [2])
COc1cc(CC/C=C/C(=O)CCc2ccccc2)ccc1O | inactive | 
C=CC(=C)CCC=C(C)C | inactive | 
COc1cc(CC[C@@H]2CC=C(CCC=C(C)C)C[C@H]2C(=O)CCc2ccccc2)ccc1O | inactive | 
COc1cc(CC[C@H]2CC=C(CCC=C(C)C)C[C@@H]2C(=O)CCc2ccccc2)ccc1O |  | Active
